In US5208251A, “Styryl pyrazoles, isoxazoles and analogs thereof having activity as 5-lipoxygenase inhibitors, pharmaceutical compositions and methods of use therefor” (Warner-Lambert Company, priority 1989, dated 1993):

Test system: cyclooxygenase
Experiment: ARBC whole cell cyclooxygenase assay (RBL-1 cells, PGF2α)
Assay type: cell-based, rat
Conditions: RBL-1 intact cell cyclooxygenase, PGF2α by RIA, A23187 5 μM
Description: ARBL/ARBC Whole Cell 5-Lipoxygenase and Cyclooxygenase Assays
The rat basophilic leukemia cell line (RBL-1) was obtained from the American Type Culture Collection (Rockville, Md.).
Radioimmuno assay (RIA) kits of LTB4 and PGF2α were obtained from Amersham (Arlington Heights, IL) and Seragen (Boston, Mass.) respectively.
All tissue culture media were obtained from GIBCO (Grand Island, N.Y.).
RBL-1 cells were grown in culture (suspension) in Eagle's minimum essential medium supplemented with fetal bovine serum and 1:100 antibiotic-antimycotic mixture at 37° C. in an incubator supplied with air-5% carbon dioxide. Cells were harvested by centrifugation. They were washed with cold phosphate buffered saline pH 7.4 (PBS; NaCl, 7.1 g; Na2 HPO4, 1.15 g; KH2 PO4, 0.2 g; and KCl, 0.2 g/L). […] Calcium ionophore A23187 (5 μM) was added and cells were incubated for seven minutes at 37° C. The reaction was stopped by chilling the tubes in ice for ten minutes. Cells were separated by centrifugation and the supernatant was stored at -20° . Aliquots (100 μl) were analyzed for LTB4 and PGF2α using radioimmuno assay kits as provided by the supplier.

| IC50 | SMILES |
| --- | --- |
| > 30 µM | CCOC(=O)Cn1nc(C)cc1/C=C/c1cc(OC)c(O)c(OC)c1 [Example 10D, (E)-5-[β-(4'-Hydroxy-3',5'-dimethoxyphenyl)ethenyl]-3-methyl-1H-pyrazole-1-acetic acid, ethyl ester] |
| > 30 µM | COC(=O)Cn1nc(C=Cc2cc(C(C)(C)C)c(O)c(C(C)(C)C)c2)cc1C [Example 10G-1] |
| > 30 µM | COC(=O)Cn1nc(C)cc1C=Cc1cc(C(C)(C)C)c(O)c(C(C)(C)C)c1 [Example 10G-2] |
| > 30 µM | COC(=O)Cn1nc(C=Cc2cc(OC)c(O)c(OC)c2)cc1C [Example 10H, 3-[β-(4'-Hydroxy-3',5'-dimethoxyphenyl)ethenyl]-5-methyl-1H-pyrazole-1-acetic acid, methyl ester] |
| > 25 µM | COC(=O)Cn1nc(C)cc1C=Cc1ccc(O)c(OC)c1 [Example 10I, 5-[β-(4'-Hydroxy-3'-methoxyphenyl)ethenyl]-3-methyl-1H-pyrazole-1-acetic acid methyl ester] |
| > 30 µM | COc1cc(C=Cc2cc(C)nn2CC(=O)O)cc(OC)c1O [Example 10M, 5-[β-(4'-Hydroxy-3',5'-dimethoxyphenyl)ethenyl]-3-methyl-1H-pyrazole-1-acetic acid] |
| > 30 µM | COc1cc(C=Cc2cc(C)n(CC(=O)O)n2)cc(OC)c1O [Example 10N, 3-[β-(4'-Hydroxy-3',5'-dimethoxyphenyl)ethenyl]-5-methyl-1H-pyrazole-1-acetic acid] |
| > 30 µM | Cc1cc(C=Cc2cc(C(C)(C)C)c(O)c(C(C)(C)C)c2)n(CC(=O)O)n1 [Example 10P, 5-[β-(4'-Hydroxy-3',5'-di-t-butylphenyl)ethenyl]-3-methyl-1H-pyrazole-1-acetic acid] |
| > 30 µM | Cc1cc(C=Cc2cc(C(C)(C)C)c(O)c(C(C)(C)C)c2)nn1CC(=O)O [Example 10Q, 3-[β-(4'-Hydroxy-3',5'-di-t-butylphenyl)ethenyl]-5-methyl-1H-pyrazole-1-acetic acid] |
| > 30 µM | Cc1cc(C=Cc2cc(Cl)cc(Cl)c2O)on1 [Example 32J, 5-[β-(2'-Hydroxy-3',5'-dichlorophenyl)ethenyl]-3-methylisoxazole] |
| > 25 µM | COC(=O)C(=Cc1cc(OC)c(O)c(OC)c1)c1cc(C)no1 [Example 40, 5-[α-Carbomethoxy-β-(4'-hydroxy-3',5'-dimethoxyphenyl)ethenyl]-3-methylisoxazole] |
| > 20 µM | Cc1cc(C(=Cc2cc(C)c(O)c(C)c2)C(=O)O)on1 [Example 52, 5-[α-carboxy-β-(4'-hydroxy-3',5'-dimethylphenyl)ethenyl]-3-methylisoxazole] |
